The test system of one series is L929. The series is described as follows: Anti-necroptosis activity against TNFalpha/Z-VAD-FMK-induced mouse L929 cell necroptosis model assessed as cell viability incubated for 24 hrs by CCK8 assay. The class given is functional, cell-based. As to conditions: L929, 24 h; call rule not given here.
Series [1] has as its target T1, Receptor-interacting serine/threonine-protein kinase 1 (Homo sapiens, UniProt Q13546).
T1 sequence (Q13546 whole entry): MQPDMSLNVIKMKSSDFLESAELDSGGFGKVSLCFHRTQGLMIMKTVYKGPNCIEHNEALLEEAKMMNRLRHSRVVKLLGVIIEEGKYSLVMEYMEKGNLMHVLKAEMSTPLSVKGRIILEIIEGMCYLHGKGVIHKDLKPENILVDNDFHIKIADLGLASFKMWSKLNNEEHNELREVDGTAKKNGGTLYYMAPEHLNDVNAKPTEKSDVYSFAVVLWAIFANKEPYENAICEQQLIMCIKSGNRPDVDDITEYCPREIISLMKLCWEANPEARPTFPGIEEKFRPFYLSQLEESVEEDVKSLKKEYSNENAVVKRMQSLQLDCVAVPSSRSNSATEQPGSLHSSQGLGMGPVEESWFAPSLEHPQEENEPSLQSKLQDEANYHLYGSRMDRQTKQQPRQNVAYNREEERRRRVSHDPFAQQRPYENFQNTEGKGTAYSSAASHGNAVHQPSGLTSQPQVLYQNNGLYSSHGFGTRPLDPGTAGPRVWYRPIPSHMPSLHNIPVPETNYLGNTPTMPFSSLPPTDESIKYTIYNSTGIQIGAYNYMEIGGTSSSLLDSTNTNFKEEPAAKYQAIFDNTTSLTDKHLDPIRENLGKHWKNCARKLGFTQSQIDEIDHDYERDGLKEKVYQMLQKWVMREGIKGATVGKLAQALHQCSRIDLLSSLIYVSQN
The series is described as follows: Binding affinity to RIPK1 (unknown origin) by KINOMEscan method.

Series [2] is described as follows: Lipophilicity, logD of compound at pH 7.4 by shake-flask method. It counts as physicochemical. As to conditions: buffer.
A further series concerns HT-29. The series is described as follows: Anti-necroptosis activity against TNFalpha/SM-164/Z-VAD-FMK-induced human HT-29 cell necroptosis model assessed as cell viability incubated for 24 hrs by CCK8 assay. It counts as functional, cell-based. As to conditions: HT-29, 24 h.
A further series concerns U-937. The series can be described thus: Anti-necroptosis activity against TNFalpha/SM-164/Z-VAD-FMK-induced human U-937 cell necroptosis model assessed as cell viability incubated for 24 hrs by CCK8 assay. It counts as functional, cell-based. As to conditions: U-937, 24 h. (Tetrazolium assays rely on reduction of a dye to a coloured formazan, in cell work by metabolically active cells.)

The nature of series [3]: Drug uptake in mouse brain in presence of 1-(7-fluoro-2,3-dihydrobenzo[f][1,4]oxazepin-4(5H)-yl)-2,2-dimethylbutan-1-one by autoradiography. It counts as ADME, tissue-based. As to conditions: in vivo.
Series [4] is described as follows: Drug uptake in mouse striatum measured upto 60 mins by PET imaging method. It counts as ADME. As to conditions: in vivo, 1 h.
Series [5] can be described thus: Metabolic stability in mouse plasma assessed as remaining compound measured at 5 mins by HPLC analysis. It counts as ADME, cell-free. As to conditions: read-out: Stability.
Series [6] is described as follows: Drug uptake in mouse brain in presence of Nec-1s by autoradiography. It counts as ADME, tissue-based. As to conditions: in vivo.
Series [7] can be described thus: Drug uptake in mouse hippocampus measured upto 60 mins by PET imaging method. It counts as ADME. As to conditions: in vivo, 1 h.
Series [8] can be described thus: Drug metabolism in mouse plasma assessed as retention time. It counts as ADME, cell-free.
Series [9] is described as follows: Drug metabolism in mouse plasma measured at 11 mins. The class given is ADME, cell-free.
Series [10] is described as follows: Drug uptake in mouse thalamus measured upto 60 mins by PET imaging method. The class given is ADME. As to conditions: in vivo, 1 h.
Series [11] in a line: Metabolic stability in mouse brain assessed as remaining compound measured at 5 mins by HPLC analysis. The class given is ADME, tissue-based. As to conditions: read-out: Stability.
A short description of series [12]: Metabolic stability in mouse brain assessed as remaining compound measured at 30 mins by HPLC analysis. It counts as ADME, tissue-based. As to conditions: read-out: Stability.
Series [13] can be described thus: Metabolic stability in mouse plasma assessed as remaining compound measured at 10 mins by HPLC analysis. The class given is ADME, cell-free. As to conditions: read-out: Stability.
Series [14] can be described thus: Drug metabolism in mouse brain measured after 10 to 12 mins by HPLC analysis. The class given is ADME, tissue-based. As to conditions: time 10-12 min.
A short description of series [15]: Drug metabolism in mouse blood measured after 10 to 12 mins by HPLC analysis. It counts as ADME, tissue-based. As to conditions: time 10-12 min.
A short description of series [16]: Drug uptake in mouse brain assessed as maximum standardized uptake value measured upto 60 mins by PET imaging method. It counts as ADME, tissue-based. As to conditions: in vivo, 1 h.
The nature of series [17]: Metabolic stability in mouse plasma assessed as remaining compound measured at 30 mins by HPLC analysis. The class given is ADME, cell-free. As to conditions: read-out: Stability.

A word on the EC50: it is the concentration at which the effect is half-maximal. By Kd is commonly meant a measure of binding affinity in units of concentration. A lower Kd goes with a tighter complex. What is called logD is the decadic logarithm of the distribution of all forms, ionised or not, between an organic phase and buffer at a given pH. Read a low logD as lower lipophilicity.

With `O=C(C1CCN(c2ncc(Br)cn2)CC1)N1CCOc2ccccc2C1`, the EC50 in the series on L929 was over 10000 nM.
With `O=C(C1CCN(c2ncc(Br)cn2)CC1)N1CCOc2ccc(F)cc2C1`, the EC50 in the series on L929 is 2320 nM.
In series [1], `CCC(C)(C)C(=O)N1CCOc2ccc(F)cc2C1` gave a Kd of 18 nM. In addition, in [2], the logD came out at 3.1. Besides, the values for the 50% effective concentration (EC50) with HT-29, in the series with U-937 and with L929 were 8.04 nM, 24.9 nM and 20 nM, respectively.
For `CCC(C)(C)C(=O)N1CCOc2ccc([18F])cc2C1`, the Drug uptake entry is recorded as “Not Active” in [3]; “Active” in [4]; “Not Active” in series [6]; “Active” in [7]; “Active” in series [10]. For the same compound, the remaining at 5 min in series [5] is 72%; in [11], 86%. Also, the Retention_time in series [8] is recorded as 2.8 min. Also, the Drug metabolism entry in [9], in series [14] and in [15] was “Metabolite_Detected” in each case. Besides, the remaining at 0.5 h was found to be 44% in series [12] and 25% in series [17]. The remaining at 10 min in [13] turned out to be 51%. Moreover, the SUVmax in [16] is 1.5.
As for `COc1ccc2c(c1)CN(C(=O)C1CCN(c3ncc(F)cn3)CC1)CCO2`, the EC50 in the series with L929 was 2580 nM.
For the compound `COc1cnc(N2CCC(C(=O)N3CCOc4ccccc4C3)CC2)nc1`, the EC50 in the series with L929 came to 4230 nM.
Compound `O=C(C1CCN(c2ncc(F)cn2)CC1)N1CCOc2ccc(F)cc2C1` returned a logD in series [2] of 2.2. Besides, the half-maximal effective concentration (EC50) with HT-29 was 5120 nM; in the series with U-937 it was 2760 nM; in the series with L929, 770 nM.
Consider `CC(C)C(=O)Nc1nc2cc(-c3ccc4c(c3)c(C(=O)NC(C)c3ccccc3)cn4C)ccn2n1` (stereo unspecified), for which the EC50 in the series with HT-29 turned out to be 12.5 nM; in the series with U-937, 12.4 nM; in the series with L929, 4 nM.
As to `O=C(C1CCN(c2ncc(F)cn2)CC1)N1CCOc2ccc(Br)cc2C1`, in the series with L929, the EC50 is 6930 nM.
On the same count and under the same terms, with `CCC(C)(C)C(=O)N1CCOc2ccc(OC)cc2C1` the figure was 8960 nM.
On the same count and under the same terms, with `O=C(C1CCN(c2ncc(O)cn2)CC1)N1CCOc2ccc(F)cc2C1` the figure was over 10000 nM.
`COc1nc(N2CCC(C(=O)N3CCOc4ccc(Br)cc4C3)CC2)ncc1F`: the EC50 with L929 was determined as 5210 nM.
`COc1nc(N2CCC(C(=O)N3CCOc4ccc(F)cc4C3)CC2)ncc1F`: the concentration giving a half-maximal response (EC50) with L929 turned out to be 6570 nM.
`O=C(C1CCN(c2ncc(F)cn2)CC1)N1CCOc2ccccc2C1`: the EC50 in the series on L929 is 830 nM.
Consider `[11CH3]Oc1cnc(N2CCC(C(=O)N3CCOc4ccc(F)cc4C3)CC2)nc1`, for which, in series [16], the SUVmax turned out to be 0.8.
Turning to `CCC(C)(C)C(=O)N1CCOc2ccc(O)cc2C1`, the half-maximal effective concentration (EC50) in the series on L929 was over 10000 nM.
`COc1cnc(N2CCC(C(=O)N3CCOc4ccc(F)cc4C3)CC2)nc1`: the logD in series [2] was 1.8. In addition, the EC50 turned out to be 200 nM in the series with HT-29, 2200 nM with U-937 and 380 nM with L929.
For the compound `O=C(C1CCN(c2ncc(Br)cn2)CC1)N1CCOc2ccc(Br)cc2C1`, the EC50 with L929 was over 10000 nM.
On to `O=C(C1CCN(c2ncc([18F])cn2)CC1)N1CCOc2ccc(F)cc2C1`, for which, in series [16], the SUVmax was 1.5.
Take `O=C(C1CCN(c2ncc(F)cn2)CC1)N1CCOc2ccc(O)cc2C1`: the concentration giving a half-maximal response (EC50) in the series with L929 is over 10000 nM.

The values are drawn from ChEMBL document CHEMBL6127046, “Design, synthesis, and preclinical evaluation of 11C/18F-labeled inhibitors for RIPK1 PET imaging” (Eur J Med Chem, 2024).
